Data from US11840551B2, “Compositions and methods of modulating the immune response by activating alpha protein kinase 1” (Shanghai Yao Yuan Biotechnology Co., Ltd., priority 2017, dated 2023).

Key:
[1] = molecular target: T1, ALPK1 (Homo sapiens, UniProt Q96QP1); assay: IL-8 and TNFα mRNA expression in HEK293 cells with control or ALPK1-directed siRNA (qPCR); assay type: cell-based; set-up: silence ALPK1 expression in HEK293 cells; endogenous in cells; host or cells: HEK293; conditions: control vs ALPK1-directed siRNA, 4 hours, HBP 500, 100, 20 uM, HMP-1bP 500, 100 uM, H1b-ADP 100, 20, 4, 0.8 nM
Description: To test whether HBP, HMP-1bP, and H1b-ADP were able to induce cytokine expression in an ALPK1 dependent manner, we used an ALPK1-directed small interfering RNA (siRNA) to silence ALPK1 expression in HEK293 cells. Cells were plated (1×10^4 cells/well) into 96-well plates and transfected with either control siRNA or ALPK1-directed siRNA according to the manufacturer's protocols (Lipofectamine™ RNAiMax™, Invitrogen 13778075). Following 2 days of culture, either (1) HBP (500 uM, 100 uM, 20 uM, FIG. 2A-2B) (2) HMP-1bP (500 uM, 100 uM, FIG. 3A-3B), (3) H1b-ADP (100 nM, 20 nM, 4 nM, 0.8 nM, FIG. 4A-4B) was added to culture medium and cells were harvested 4 hours later.

[2] = molecular target: T1, ALPK1; assay: In vitro kinase assay of ALPK1-dependent TIFA phosphorylation; assay type: biochemical
Description: We performed an in vitro kinase assay with H1b-ADP and H1b-ADP-6L along with ALPK1 protein (2 nM), and TIFA protein (1.6 uM) in kinase buffer containing 50 uM ATP. TIFA phosphorylation was analyzed by denaturing gel electrophoresis followed by western blotting using an anti-phosphothreonine antibody. H1b-ADP or H1b-ADP-6L was added at 2 nM, 0.4 nM, 80 pM, 16 pM, and 3 pM.
To test this, we performed an in vitro kinase reaction for ALPK1-dependent TIFA phosphorylation in the presence of either HBP or HIdA purified from E. coli containing inactivated HIdE, or in the presence of HBP and HIdA purified from the same HIdE wild-type E. coli used in the previous experiments. Phosphorylated TIFA (three concentrations, 1%, 0.2% and […]) was detected as described above by denaturing gel electrophoresis followed by Western analysis.

[3] = test system: CT26 cells; assay: CT26 tumor xenograft model, tumor growth (tumor volume); assay type: in vivo, BALB/c mice
Description: We used a CT26 tumor xenograft model to test the anti-cancer activity of H1b-ADP. Tumor cells (2×10^5 per 100 uL CT26 cells) were inoculated subcutaneously into the right flank of BALB/c mice. At day 6, mice whose tumors had reached 3-5 mm in diameter were randomized and grouped into three groups (n=8 each group), control, HMP-1bP (580 ug), and H1b-ADP (1.2 ug). Injections were performed using a total volume of 20 uL at days 6, 8, 10, 12, and 14 post inoculation. Tumor volumes were calculated every 2 days from caliper measurements of tumor dimension using the formula (L×W^2)/2, where L is the longer measurement.
To test whether H1b-ADP could augment an anti-tumor response by a checkpoint inhibitor, we tested the effects of co-administration with an anti-PD1 antibody. Tumor cells (2×10^5 per 100 μL CT26 cells) were inoculated subcutaneously into the left and right flanks of BALB/c mice. At day 7, mice whose tumors had reached 5 mm in diameter were randomized and grouped (n=8 each group) into the following four groups: anti-PD1 antibody; rat IgG; H1b-ADP+rat IgG; H1b-ADP+anti-PD1 antibody. We utilized RMP1-14 as the anti-PD1 antibody (10 mg/kg) and a rat IgG 2a (2A3) as the control IgG. Each of the anti-PD-1 antibody and the control IgG was administered intraperitoneally in a 200 μL volume on days 6, 10, 12, and 17 post-inoculation. H1b-ADP (6.2 μg) was intratumorally injected in a 20 μL volume at day 6, 8, 10, 12, and 15. Tumor volumes were calculated every 2 days from caliper measurements of tumor dimensions using the formula (L×W^2)/2, where L is the longer measurement. The results are shown in FIG. 13A for injected tumors and FIG. 13B for distant tumors. […]
The experiment was carried out as combo experiments of anti-PD1 except for the following variations. At day 6, mice whose tumors had reached 5 mm in diameter were randomized and grouped into the following four groups: anti-CTLA-4 antibody; rat IgG; H1b-ADP+rat IgG; H1b-ADP+anti-CTLA-4 antibody. We utilized 9D9 (BioxCell) as the anti-CTLA-4 antibody and a rat IgG 2b isotype (MPC-11 clone, BE0086, BioXCell) as the control IgG. Each of the anti-CTLA-4 antibody (25 μg) and the control IgG (25 μg) was administered intraperitoneally in a 200 μL volume on days 6 and 9 post-inoculation. H1b-ADP (6.2 μg) was administered intratumorally in a 20 μL volume on days 6, 7, 9, 11 post-inoculation.
The experiment was carried out as combo experiments of anti-PD1 except for the following variations. At day 6, mice whose tumors had reached 5 mm in diameter were randomized and grouped into the following four groups: c-di-AM(PS)2; PBS; H1b-ADP; H1b-ADP+c-di-AM(PS)2. We utilized c-di-AM(PS)2 as the STING agonist. […]

T1 sequence (Q96QP1 whole entry): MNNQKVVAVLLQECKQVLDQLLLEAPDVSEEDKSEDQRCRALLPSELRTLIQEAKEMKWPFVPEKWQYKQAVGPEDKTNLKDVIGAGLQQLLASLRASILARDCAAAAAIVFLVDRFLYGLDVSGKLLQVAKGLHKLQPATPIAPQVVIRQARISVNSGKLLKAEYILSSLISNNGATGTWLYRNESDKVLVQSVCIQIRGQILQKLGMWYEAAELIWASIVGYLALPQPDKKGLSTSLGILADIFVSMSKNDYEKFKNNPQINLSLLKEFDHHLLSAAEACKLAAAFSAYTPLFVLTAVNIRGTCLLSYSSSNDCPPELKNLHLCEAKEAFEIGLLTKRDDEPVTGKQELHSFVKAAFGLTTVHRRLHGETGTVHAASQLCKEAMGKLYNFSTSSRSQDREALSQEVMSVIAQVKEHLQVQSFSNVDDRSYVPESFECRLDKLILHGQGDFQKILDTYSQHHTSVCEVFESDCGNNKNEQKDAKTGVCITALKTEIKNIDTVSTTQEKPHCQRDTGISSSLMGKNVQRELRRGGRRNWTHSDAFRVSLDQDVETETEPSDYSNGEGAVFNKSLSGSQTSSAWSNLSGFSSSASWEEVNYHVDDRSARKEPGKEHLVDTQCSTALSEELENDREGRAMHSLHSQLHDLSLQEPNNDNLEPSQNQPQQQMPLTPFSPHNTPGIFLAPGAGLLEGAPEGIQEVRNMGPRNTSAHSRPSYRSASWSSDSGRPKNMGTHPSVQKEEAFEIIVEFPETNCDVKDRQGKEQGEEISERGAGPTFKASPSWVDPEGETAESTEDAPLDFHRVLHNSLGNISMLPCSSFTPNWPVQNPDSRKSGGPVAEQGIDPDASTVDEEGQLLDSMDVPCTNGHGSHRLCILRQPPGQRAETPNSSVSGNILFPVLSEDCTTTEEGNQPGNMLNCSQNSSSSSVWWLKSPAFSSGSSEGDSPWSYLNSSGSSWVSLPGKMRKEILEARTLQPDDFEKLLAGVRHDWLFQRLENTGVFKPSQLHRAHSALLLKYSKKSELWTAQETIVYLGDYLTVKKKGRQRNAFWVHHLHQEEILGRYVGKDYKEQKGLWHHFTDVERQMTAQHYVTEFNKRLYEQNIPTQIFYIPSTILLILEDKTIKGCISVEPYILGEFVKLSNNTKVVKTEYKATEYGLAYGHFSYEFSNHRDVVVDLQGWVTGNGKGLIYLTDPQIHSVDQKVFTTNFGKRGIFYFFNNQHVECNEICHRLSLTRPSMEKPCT

Structure (SMILES)	IL-8 mRNA expression [1]	TNFα mRNA expression [1]	phosphorylation of the ALPK1 substrate TIFA ([2]; FIG. 7, chemically-synthesized compounds)	tumor growth ([3]; intratumoral, days 6, 8, 10, 12, 14, HMP-1bP 580 ug, H1b-ADP 1.2 ug)	TIFA phosphorylation ([2]; ALPK1 2 nM, TIFA 1.6 uM, 50 uM ATP, compound 2 nM, 0.4 nM, 80 pM, 16 pM, 3 pM)	tumor growth ([3]; Example 7, H1b-ADP 6.2 μg intratumoral, anti-PD1 antibody 10 mg/kg intraperitoneal, injected and distant tumors)
O=P(O)(O)O[C@@H]1O[C@H]([C@H](O)CO)[C@@H](O)[C@H](O)[C@@H]1O [HMP-1bP, D-glycero-β-D-manno-heptose-1-phosphate]	increased in an ALPK1-dependent manner	increased in an ALPK1-dependent manner	TIFA is phosphorylated only in the presence of H1b-ADP	but not HMP-1bP, reduced tumor growth		
Nc1ncnc2c1ncn2[C@@H]1O[C@H](COP(=O)(O)OP(=O)(O)O[C@@H]2O[C@H]([C@H](O)CO)[C@@H](O)[C@H](O)[C@@H]2O)[C@@H](O)[C@H]1O [Compound H1b-ADP, D-glycero-D-manno-heptose-1β-ADP]	increased in an ALPK1-dependent manner	increased in an ALPK1-dependent manner			phosphorylation of the ALPK1 substrate TIFA	markedly suppressed tumor growth
